{"source": "PubChem BioAssay (NCI)", "test_in_all_cases": "NCI tumour cell line growth inhibition, 48 h", "key": {"[1]": {"system": "SK-OV-3 ovarian"}, "[2]": {"system": "HCT-15 colon"}, "[3]": {"system": "A549 NSCLC"}, "[4]": {"system": "NCI-H23 lung"}, "[5]": {"system": "HS 578T breast"}, "[6]": {"system": "MOLT-4 leukemia"}, "[7]": {"system": "MDA-N"}, "[8]": {"system": "IGROV1 ovarian"}, "[9]": {"system": "LOX IMVI melanoma"}, "[10]": {"system": "RPMI-8226 leukemia"}, "[11]": {"system": "HOP-92 NSCLC"}, "[12]": {"system": "A498 renal"}, "[13]": {"system": "NCI-H460 lung"}, "[14]": {"system": "BT-549 breast"}, "[15]": {"system": "SNB-75 CNS"}, "[16]": {"system": "HOP-62 NSCLC"}, "[17]": {"system": "SF-295 CNS"}, "[18]": {"system": "CAKI-1 renal"}, "[19]": {"system": "PC-3 prostate"}, "[20]": {"system": "HCT-116 colon"}, "[21]": {"system": "SNB-19 CNS"}, "[22]": {"system": "EKVX NSCLC"}, "[23]": {"system": "UACC-257 melanoma"}, "[24]": {"system": "RXF 393 renal"}, "[25]": {"system": "MDA-MB-231 breast"}, "[26]": {"system": "HCC-2998 colon"}, "[27]": {"system": "SK-MEL-2 melanoma"}, "[28]": {"system": "SF-268 CNS"}, "[29]": {"system": "K-562 leukemia"}, "[30]": {"system": "HT29 colon"}, "[31]": {"system": "KM12 colon"}, "[32]": {"system": "MALME-3M melanoma"}, "[33]": {"system": "OVCAR-8 ovarian"}, "[34]": {"system": "OVCAR-5 ovarian"}, "[35]": {"system": "UACC-62 melanoma"}, "[36]": {"system": "786-0 renal"}, "[37]": {"system": "M14 melanoma"}, "[38]": {"system": "TK-10 renal"}, "[39]": {"system": "MCF7 breast"}, "[40]": {"system": "DU-145 prostate"}, "[41]": {"system": "SN12C renal"}, "[42]": {"system": "HL-60(TB) leukemia"}, "[43]": {"system": "OVCAR-3 ovarian"}, "[44]": {"system": "COLO 205 colon"}, "[45]": {"system": "NCI-H522 lung"}, "[46]": {"system": "SK-MEL-5 melanoma"}, "[47]": {"system": "NCI/ADR-RES ovarian"}, "[48]": {"system": "SW-620 colon"}, "[49]": {"system": "OVCAR-4 ovarian"}, "[50]": {"system": "T-47D breast"}, "[51]": {"system": "SF-539 CNS"}, "[52]": {"system": "NCI-H226 lung"}, "[53]": {"system": "SR leukemia"}, "[54]": {"system": "MDA-MB-435"}, "[55]": {"system": "SK-MEL-28 melanoma"}, "[56]": {"system": "U251 CNS"}, "[57]": {"system": "ACHN renal"}, "[58]": {"system": "UO-31 renal"}}, "note": "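Where inhibition never reached the appropriate level, the endpoint shown equals the highest concentration tested. Otherwise, values were interpolated linearly from a five-concentration, 48-hour dose response in 96-well plates. TGI denotes the concentration required for complete inhibition of growth.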"}
{"smiles": "C=C[C@]1(C)C[C@@H](OC(=O)CO)[C@@]2(C)[C@H](C)CC[C@]3(CCC(=O)[C@H]32)[C@@H](C)[C@@H]1O", "values": [{"measurement": "TGI", "setting": "[1]", "value": "> 100", "unit": "µM"}, {"measurement": "TGI", "setting": "[2]", "value": "> 100", "unit": "µM"}, {"measurement": "TGI", "setting": "[3]", "value": "> 100", "unit": "µM"}, {"measurement": "TGI", "setting": "[4]", "value": "> 100", "unit": "µM"}, {"measurement": "TGI", "setting": "[5]", "value": 97, "unit": "µM"}, {"measurement": "TGI", "setting": "[6]", "value": "> 75.5", "unit": "µM"}, {"measurement": "TGI", "setting": "[7]", "value": "> 100", "unit": "µM"}, {"measurement": "TGI", "setting": "[8]", "value": "> 100", "unit": "µM"}, {"measurement": "TGI", "setting": "[9]", "value": "> 31.6", "unit": "µM"}, {"measurement": "TGI", "setting": "[10]", "value": "> 100", "unit": "µM"}, {"measurement": "TGI", "setting": "[11]", "value": "> 100", "unit": "µM"}, {"measurement": "TGI", "setting": "[12]", "value": "> 78.2", "unit": "µM"}, {"measurement": "TGI", "setting": "[13]", "value": "> 100", "unit": "µM"}, {"measurement": "TGI", "setting": "[14]", "value": "> 100", "unit": "µM"}, {"measurement": "TGI", "setting": "[15]", "value": "> 100", "unit": "µM"}, {"measurement": "TGI", "setting": "[16]", "value": "> 100", "unit": "µM"}, {"measurement": "TGI", "setting": "[17]", "value": "> 100", "unit": "µM"}, {"measurement": "TGI", "setting": "[18]", "value": "> 100", "unit": "µM"}, {"measurement": "TGI", "setting": "[19]", "value": "> 100", "unit": "µM"}, {"measurement": "TGI", "setting": "[20]", "value": "> 100", "unit": "µM"}, {"measurement": "TGI", "setting": "[21]", "value": "> 100", "unit": "µM"}, {"measurement": "TGI", "setting": "[22]", "value": "> 100", "unit": "µM"}, {"measurement": "TGI", "setting": "[23]", "value": "> 100", "unit": "µM"}, {"measurement": "TGI", "setting": "[24]", "value": "> 100", "unit": "µM"}, {"measurement": "TGI", "setting": "[25]", "value": "> 100", "unit": "µM"}, {"measurement": "TGI", "setting": "[26]", "value": "> 100", "unit": "µM"}, {"measurement": "TGI", "setting": "[27]", "value": "> 100", "unit": "µM"}, {"measurement": "TGI", "setting": "[28]", "value": "> 100", "unit": "µM"}, {"measurement": "TGI", "setting": "[29]", "value": "> 75.1", "unit": "µM"}, {"measurement": "TGI", "setting": "[30]", "value": "> 100", "unit": "µM"}, {"measurement": "TGI", "setting": "[31]", "value": "> 100", "unit": "µM"}, {"measurement": "TGI", "setting": "[32]", "value": "> 100", "unit": "µM"}, {"measurement": "TGI", "setting": "[33]", "value": "> 100", "unit": "µM"}, {"measurement": "TGI", "setting": "[34]", "value": "> 100", "unit": "µM"}, {"measurement": "TGI", "setting": "[35]", "value": "> 50.3", "unit": "µM"}, {"measurement": "TGI", "setting": "[36]", "value": "> 100", "unit": "µM"}, {"measurement": "TGI", "setting": "[37]", "value": "> 100", "unit": "µM"}, {"measurement": "TGI", "setting": "[38]", "value": "> 100", "unit": "µM"}, {"measurement": "TGI", "setting": "[39]", "value": "> 100", "unit": "µM"}, {"measurement": "TGI", "setting": "[40]", "value": "> 100", "unit": "µM"}, {"measurement": "TGI", "setting": "[41]", "value": "> 100", "unit": "µM"}, {"measurement": "TGI", "setting": "[42]", "value": "> 100", "unit": "µM"}, {"measurement": "TGI", "setting": "[43]", "value": "> 100", "unit": "µM"}, {"measurement": "TGI", "setting": "[44]", "value": "> 100", "unit": "µM"}, {"measurement": "TGI", "setting": "[45]", "value": "> 100", "unit": "µM"}, {"measurement": "TGI", "setting": "[46]", "value": "> 100", "unit": "µM"}, {"measurement": "TGI", "setting": "[47]", "value": "> 100", "unit": "µM"}, {"measurement": "TGI", "setting": "[48]", "value": "> 100", "unit": "µM"}, {"measurement": "TGI", "setting": "[49]", "value": "> 100", "unit": "µM"}, {"measurement": "TGI", "setting": "[50]", "value": "> 100", "unit": "µM"}, {"measurement": "TGI", "setting": "[51]", "value": "> 100", "unit": "µM"}, {"measurement": "TGI", "setting": "[52]", "value": "> 100", "unit": "µM"}, {"measurement": "TGI", "setting": "[53]", "value": "> 74.2", "unit": "µM"}, {"measurement": "TGI", "setting": "[54]", "value": "> 100", "unit": "µM"}, {"measurement": "TGI", "setting": "[55]", "value": "> 100", "unit": "µM"}, {"measurement": "TGI", "setting": "[56]", "value": "> 100", "unit": "µM"}, {"measurement": "TGI", "setting": "[57]", "value": "> 100", "unit": "µM"}, {"measurement": "TGI", "setting": "[58]", "value": "> 100", "unit": "µM"}]}
